Where two headings read alike, the source gives them in different places.
Legend:
Capan-1 (K-Ras G12V) = assay: CellTiter-Glo cell viability assay, 5-day treatment; assay type: cell-based; conditions: Homo sapiens, CAPAN-1, 120 h, 5-day treatment; read-out: Capan-1 Cell Viability assay data (K-Ras G12V, IC50)
Method in brief: (§1)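 Viability is read as luminescence on day 5 after direct compound addition to plated cells, following about 30 minutes' room-temperature equilibration. Each signal is scaled to mean DMSO as 100%.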

NCI-H358 (K-Ras G12C) = assay: as above; assay type: cell-based; conditions: Homo sapiens, NCI-H358, 120 h, 5-day treatment; read-out: H358 Cell Viability assay data (K-Ras G12C, IC50)
Method in brief: as §1

KRAS G12C = KRAS G12C (Homo sapiens, UniProt P01116+P62937, G12C); assay: Disruption of BRAF RBD interaction with Ras (FRET / MOA assay, with Cyclophilin A); assay type: biochemical
Method in brief: (§2)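 Measured via TR-FRET after 3 h at 25 °C with compound (30 μM top, threefold serial steps, ten concentrations) plus K-Ras, Cyclophilin A and BRAF RBD, followed by 1.5 h with anti-His europium (10 nM) and anti-GST allophycocyanin (50 nM). Signal loss versus DMSO gave IC50.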

KRAS G12D = KRAS G12D (Homo sapiens, UniProt P01116+P62937, G12D); assay: as above; assay type: biochemical
Method in brief: as §2

KRAS G12S = KRAS G12S (Homo sapiens, UniProt P01116+P62937, G12S); assay: as above; assay type: biochemical
Method in brief: as §2

KRAS G12V = KRAS G12V (Homo sapiens, UniProt P01116+P62937, G12V); assay: as above; assay type: biochemical
Method in brief: as §2

KRAS G13C = KRAS G13C (Homo sapiens, UniProt P01116+P62937, G13C); assay: as above; assay type: biochemical
Method in brief: as §2

KRAS G13D = KRAS G13D (Homo sapiens, UniProt P01116+P62937, G13D); assay: as above; assay type: biochemical
Method in brief: as §2

KRAS WT = KRAS WT (Homo sapiens, UniProt P01116+P62937); assay: as above; assay type: biochemical
Method in brief: as §2

NRAS G12C = NRAS G12C (Homo sapiens, UniProt P01111+P62937, G12C); assay: as above; assay type: biochemical
KRAS Q61H = KRAS Q61H (Homo sapiens, UniProt P01116+P62937, Q61H); assay: as above; assay type: biochemical; conditions: KRAS Q61H; read-out: KRAS Q61H FRET data IC50
Method in brief: (§3)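 TR-FRET in 25 mM HEPES pH 7.3, 100 mM NaCl, 5 mM MgCl2, 0.1% BSA: 25 μM Cyclophilin A, 12.5 nM His6-Ras-GMPPNP, 50 nM GST-BRAF RBD with compound (10-point 3-fold series from 30 μM), 3 h at 25° C. Anti-His Eu/anti-GST APC added, 1.5 h more; IC50 from decreased FRET ratio versus DMSO.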

NRAS Q61K = NRAS Q61K (Homo sapiens, UniProt P01111+P62937, Q61K); assay: as above; assay type: biochemical; conditions: NRAS Q61K; read-out: NRAS Q61K FRET data IC50
Method in brief: as §3

NRAS Q61R = NRAS Q61R (Homo sapiens, UniProt P01111+P62937, Q61R); assay: as above; assay type: biochemical; conditions: NRAS Q61R; read-out: NRAS Q61R FRET data IC50
Method in brief: as §3

NRAS WT = NRAS WT (Homo sapiens, UniProt P01111+P62937); assay: as above; assay type: biochemical; conditions: NRAS WT; read-out: NRAS WT FRET data IC50
Method in brief: as §3

[1] = read-out: KRAS G12C FRET data, IC50
[2] = read-out: KRAS G12D FRET data, IC50
[3] = read-out: KRAS G12S FRET data, IC50
[4] = KRAS G12V, read-out: KRAS G12V FRET data IC50
[5] = read-out: KRAS G13C FRET data, IC50
[6] = KRAS G13D, read-out: KRAS G13D FRET data IC50
[7] = KRAS WT, read-out: KRAS WT FRET data IC50
[8] = NRAS G12C, read-out: NRAS G12C FRET data IC50

Sequence of NRAS WT (P01111 whole entry): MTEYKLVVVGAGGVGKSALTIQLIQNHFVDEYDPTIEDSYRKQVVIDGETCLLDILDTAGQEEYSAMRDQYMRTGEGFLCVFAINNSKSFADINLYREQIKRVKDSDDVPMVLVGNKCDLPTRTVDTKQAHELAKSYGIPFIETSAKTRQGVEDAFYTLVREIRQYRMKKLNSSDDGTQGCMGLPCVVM
Sequence of NRAS WT (P62937 whole entry): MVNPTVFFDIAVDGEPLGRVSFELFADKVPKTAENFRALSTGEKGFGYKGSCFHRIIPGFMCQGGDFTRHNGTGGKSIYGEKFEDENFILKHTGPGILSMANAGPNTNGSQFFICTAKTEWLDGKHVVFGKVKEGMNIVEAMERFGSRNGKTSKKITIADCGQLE
Sequence of KRAS G12C (P01116 1-169 isoform P01116-2 G12C): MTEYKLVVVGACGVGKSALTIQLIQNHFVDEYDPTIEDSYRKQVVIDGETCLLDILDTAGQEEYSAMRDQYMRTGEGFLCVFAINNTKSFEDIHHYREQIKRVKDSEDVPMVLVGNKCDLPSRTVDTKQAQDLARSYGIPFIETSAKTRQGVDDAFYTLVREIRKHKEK
Sequence of KRAS G12C (P62937 whole entry): as the sequence (P62937 whole entry) above
Sequence of KRAS G12D (P01116 1-169 isoform P01116-2 G12D limits assumed): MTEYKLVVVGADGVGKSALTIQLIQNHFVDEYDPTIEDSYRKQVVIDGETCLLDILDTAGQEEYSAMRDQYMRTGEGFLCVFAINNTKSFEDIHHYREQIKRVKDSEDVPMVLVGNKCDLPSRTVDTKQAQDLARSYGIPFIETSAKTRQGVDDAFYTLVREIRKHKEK
Sequence of KRAS G12D (P62937 whole entry): as the sequence (P62937 whole entry) above
Sequence of NRAS G12C (P01111 whole entry G12C): as the sequence (P01111 whole entry) above, with G12C counted along it
Sequence of NRAS G12C (P62937 whole entry): as the sequence (P62937 whole entry) above
Sequence of KRAS G12S (P01116 1-169 isoform P01116-2 G12S limits assumed): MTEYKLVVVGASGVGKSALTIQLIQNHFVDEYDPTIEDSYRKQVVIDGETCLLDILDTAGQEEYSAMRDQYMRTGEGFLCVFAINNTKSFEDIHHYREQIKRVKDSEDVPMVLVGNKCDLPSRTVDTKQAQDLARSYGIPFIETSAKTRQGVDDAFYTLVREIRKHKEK
Sequence of KRAS G12S (P62937 whole entry): as the sequence (P62937 whole entry) above
Sequence of NRAS Q61R (P01111 whole entry Q61R): as the sequence (P01111 whole entry) above, with Q61R counted along it
Sequence of NRAS Q61R (P62937 whole entry): as the sequence (P62937 whole entry) above
Sequence of KRAS G12V (P01116 1-169 isoform P01116-2 G12V limits assumed): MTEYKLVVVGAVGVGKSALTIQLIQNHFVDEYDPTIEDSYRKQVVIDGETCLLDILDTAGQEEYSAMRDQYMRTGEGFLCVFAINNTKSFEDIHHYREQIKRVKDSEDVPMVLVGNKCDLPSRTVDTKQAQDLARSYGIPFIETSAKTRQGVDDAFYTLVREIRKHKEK
Sequence of KRAS G12V (P62937 whole entry): as the sequence (P62937 whole entry) above
Sequence of KRAS G13C (P01116 1-169 isoform P01116-2 G13C): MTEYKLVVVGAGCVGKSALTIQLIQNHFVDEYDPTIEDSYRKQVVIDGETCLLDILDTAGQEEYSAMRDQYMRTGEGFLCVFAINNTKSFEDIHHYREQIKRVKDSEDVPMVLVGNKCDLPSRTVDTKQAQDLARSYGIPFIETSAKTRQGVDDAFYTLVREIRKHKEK
Sequence of KRAS G13C (P62937 whole entry): as the sequence (P62937 whole entry) above
Sequence of KRAS Q61H (P01116 1-169 isoform P01116-2 Q61H limits assumed): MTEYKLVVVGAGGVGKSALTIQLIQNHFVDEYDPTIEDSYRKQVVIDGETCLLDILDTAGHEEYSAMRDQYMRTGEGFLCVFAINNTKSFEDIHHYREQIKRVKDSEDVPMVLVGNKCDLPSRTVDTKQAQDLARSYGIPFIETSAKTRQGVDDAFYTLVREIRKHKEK
Sequence of KRAS Q61H (P62937 whole entry): as the sequence (P62937 whole entry) above
Sequence of NRAS Q61K (P01111 whole entry Q61K): as the sequence (P01111 whole entry) above, with Q61K counted along it
Sequence of NRAS Q61K (P62937 whole entry): as the sequence (P62937 whole entry) above
Sequence of KRAS G13D (P01116 1-169 isoform P01116-2 G13D limits assumed): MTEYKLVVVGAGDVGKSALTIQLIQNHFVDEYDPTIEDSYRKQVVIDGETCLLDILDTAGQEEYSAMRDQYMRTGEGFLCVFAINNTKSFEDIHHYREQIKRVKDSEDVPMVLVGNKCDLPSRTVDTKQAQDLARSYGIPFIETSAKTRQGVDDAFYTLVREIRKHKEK
Sequence of KRAS G13D (P62937 whole entry): as the sequence (P62937 whole entry) above
Sequence of KRAS WT (P01116 1-169 isoform P01116-2 limits assumed): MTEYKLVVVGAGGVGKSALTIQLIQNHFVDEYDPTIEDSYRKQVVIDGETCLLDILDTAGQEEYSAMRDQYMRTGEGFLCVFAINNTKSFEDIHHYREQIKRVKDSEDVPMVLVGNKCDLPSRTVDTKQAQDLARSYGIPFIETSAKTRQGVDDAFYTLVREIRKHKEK
Sequence of KRAS WT (P62937 whole entry): as the sequence (P62937 whole entry) above

Row | Structure (SMILES) | IC50 (NCI-H358 (K-Ras G12C)) [nM] | IC50 (KRAS G12C; [1]) [nM] | IC50 (KRAS G12D; [2]) [nM] | IC50 (KRAS G12S; [3]) [nM] | IC50 (KRAS G12V; [4]) [nM] | IC50 (KRAS G13C; [5]) [nM] | IC50 (KRAS G13D; [6]) [nM] | IC50 (KRAS WT; [7]) [nM] | IC50 (NRAS G12C; [8]) [nM] | IC50 (KRAS Q61H) [nM] | IC50 (NRAS Q61K) [nM] | IC50 (NRAS Q61R) [nM] | IC50 (NRAS WT) [nM] | IC50 (Capan-1 (K-Ras G12V)) [nM] | also measured
1 | CCn1c(-c2cccnc2[C@H](C)OC)c2c3cc(ccc31)-c1cc(O)cc(c1)C[C@H](NC(=O)[C@H](C(C)C)N(C)C(=O)C1Cc3cccnc3C1)C(=O)N1CCC[C@H](N1)C(=O)OCC(C)(C)C2 (stereo partly drawn) [Example A250] | 10 to 100 | 10 to 100 | 100 to 1000 | 10 to 100 | 10 to 100 | 10 to 100 | 100 to 1000 | 100 to 1000 | 10 to 100 | 10 to 100 | 100 to 1000 | 100 to 1000 | 10 to 100 | 10 to 100 | –
2 | CCn1c(-c2cccnc2[C@H](C)OC)c2c3cc(ccc31)-c1csc(n1)C[C@H](NC(=O)[C@H](C(C)C)N(C)C(=O)N1CCC13CCN(C)CC3)C(=O)N1CCC[C@H](N1)C(=O)OCC(C)(C)C2 [Example A273] | 10 to 100 | 10 to 100 | 100 to 1000 | 10 to 100 | 100 to 1000 | 100 to 1000 | 100 to 1000 | 100 to 1000 | 10 to 100 | 10 to 100 | 100 to 1000 | 100 to 1000 | 10 to 100 | 100 to 1000 | –
3 | CCn1c(-c2cccnc2[C@H](C)OC)c2c3cc(ccc31)-c1csc(n1)C[C@H](NC(=O)[C@H](C(C)C)N(C)C(=O)N1CCC13CN(C)C3)C(=O)N1CCC[C@H](N1)C(=O)OCC(C)(C)C2 [Example A274] | 100 to 1000 | 10 to 100 | 100 to 1000 | 100 to 1000 | 100 to 1000 | 100 to 1000 | 100 to 1000 | 10 to 100 | 10 to 100 | 10 to 100 | 100 to 1000 | 100 to 1000 | 10 to 100 | 100 to 1000 | –

Further lines, with some results ahead:

Row | IC50 (NCI-H358 (K-Ras G12C)) [nM] | IC50 (KRAS G12C; [1]) [nM] | IC50 (KRAS G12D; [2]) [nM] | IC50 (KRAS G12S; [3]) [nM] | IC50 (KRAS G12V; [4]) [nM] | IC50 (KRAS G13C; [5]) [nM] | IC50 (KRAS G13D; [6]) [nM] | IC50 (KRAS WT; [7]) [nM] | IC50 (NRAS G12C; [8]) [nM] | IC50 (KRAS Q61H) [nM] | IC50 (NRAS Q61K) [nM] | IC50 (NRAS Q61R) [nM] | IC50 (NRAS WT) [nM] | Structure (SMILES) | IC50 (Capan-1 (K-Ras G12V)) [nM] | also measured
4 | 100 to 1000 | 100 to 1000 | 1000 to 10000 | 1000 to 10000 | 1000 to 10000 | 1000 to 10000 | 1000 to 10000 | 100 to 1000 | 100 to 1000 | 100 to 1000 | 100 to 1000 | 100 to 1000 | 100 to 1000 | CCn1c(-c2cccnc2[C@H](C)OC)c2c3cc(ccc31)-c1csc(n1)C[C@H](NC(=O)[C@H](C(C)C)N(C)C(=O)O[C@H]1CCOC1)C(=O)N1CCC[C@H](N1)C(=O)OCC(C)(C)C2 [Example A210] | 10 to 100 | –
5 | 100 to 1000 | 10 to 100 | 1000 to 10000 | 100 to 1000 | 100 to 1000 | 10 to 100 | 100 to 1000 | 100 to 1000 | 100 to 1000 | 10 to 100 | 100 to 1000 | 100 to 1000 | 100 to 1000 | CCn1c(-c2cccnc2[C@H](C)OC)c2c3cc(ccc31)-c1cc(O)cc(c1)C[C@H](NC(=O)[C@H](C(C)C)N(C)C(=O)C1CCc3ccccc3N1)C(=O)N1CCC[C@H](N1)C(=O)OCC(C)(C)C2 (stereo partly drawn) [Example A226] | 100 to 1000 | –
6 | 100 to 1000 | – | – | – | – | – | – | – | – | 100 to 1000 | 100 to 1000 | 100 to 1000 | 100 to 1000 | CCn1c(-c2cccnc2[C@H](C)OC)c2c3cc(ccc31)-c1csc(n1)C[C@H](NC(=O)N1CCCC1)C(=O)N1CCC[C@H](N1)C(=O)OCC(C)(C)C2 [Example A267] | 100 to 1000 | IC50 (KRAS G12C; KRAS G12C FRET data, IC50): 100 to 1000 nM; IC50 (KRAS G12D; KRAS G12D FRET data, IC50): 100 to 1000 nM; IC50 (KRAS G12S; KRAS G12S FRET data, IC50): 100 to 1000 nM; IC50 (KRAS G12V; KRAS G12V FRET data IC50, KRAS G12V): 100 to 1000 nM; IC50 (KRAS G13C; KRAS G13C FRET data, IC50): 100 to 1000 nM; IC50 (KRAS G13D; KRAS G13D FRET data IC50, KRAS G13D): 100 to 1000 nM; IC50 (KRAS WT; KRAS WT FRET data IC50, KRAS WT): 100 to 1000 nM; IC50 (NRAS G12C; NRAS G12C FRET data IC50, NRAS G12C): 10 to 100 nM
